For experiment [1], the system named is KPC orthotopic tumors. Nature of the experiment: DIDS treatment of mice bearing orthotopic KPC tumors (tumor growth, tumor weight). In kind it is in vivo, mouse. Conditions: 15 mg/kg DIDS i.p. bi-daily for 10 days. The procedure:
C57BL6/N were injected subcutaneously in the right flank with 1*10^6 Panc02 cells (pancreatic cancer cell line), 2*10^6 KP cells (lung cancer cell line), 0.8*10^6 KR158B cells (glioblastoma cell line), or 5*106 CMT-93 cells (colorectal cancer cell line) in 200 μl. Tumor growth was monitored by measuring the perpendicular diameters of tumors every other day and mice were sacrificed at a humane endpoint. FVB mice were injected orthotopically in the head of the pancreas with 10′000 KPC cells in 20 μl. Body weight was monitored and mice were sacrificed at a humane endpoint. Alternatively, FVB mice were injected subcutaneously in the right flank with 0,5*10^6 KPC cells in 200 μl. Tumor growth was monitored by measuring the perpendicular diameters of tumors every other day and mice were sacrificed at a humane endpoint. For immunotherapy treatment the mice were treated intraperitoneally (i.p.) with 10 mg/kg of either control IgG, anti-PD-1 (αPD-1), anti-PDL1 (αPDL1), or anti-CTLA-4 (αCTLA-4) antibodies (3×/week). For CD8 depletion mice were injected i.p. with an anti-CD8 antibody (10 mg/kg) 3 days before tumor inoculation and then 1 time per week. For in vivo slc4a4 inhibition, mice were treated with 15 mg/kg of 4,4′-Diisothiocyano-2,2′-stilbenedisulfonic acid (DIDS) i.p. bi-daily for a period of 10 days. […]

Experiment [2] deals with KPC orthotopic tumors. The experiment is described as follows: FACS analysis of immune infiltrate in orthotopic KPC tumors of DIDS-treated mice. In kind it is in vivo, mouse. To be noted: WT KPC orthotopic tumors, DIDS vs DMSO, flow cytometry. As for the experimental part: C57BL6/N were injected subcutaneously in the right flank with 1*10^6 Panc02 cells (pancreatic cancer cell line), 2*10^6 KP cells (lung cancer cell line), 0.8*10^6 KR158B cells (glioblastoma cell line), or 5*106 CMT-93 cells (colorectal cancer cell line) in 200 μl. Tumor growth was monitored by measuring the perpendicular diameters of tumors every other day and mice were sacrificed at a humane endpoint. FVB mice were injected orthotopically in the head of the pancreas with 10′000 KPC cells in 20 μl. Body weight was monitored and mice were sacrificed at a humane endpoint. Alternatively, FVB mice were injected subcutaneously in the right flank with 0,5*10^6 KPC cells in 200 μl. Tumor growth was monitored by measuring the perpendicular diameters of tumors every other day and mice were sacrificed at a humane endpoint. For immunotherapy treatment the mice were treated intraperitoneally (i.p.) with 10 mg/kg of either control IgG, anti-PD-1 (αPD-1), anti-PDL1 (αPDL1), or anti-CTLA-4 (αCTLA-4) antibodies (3×/week). For CD8 depletion mice were injected i.p. with an anti-CD8 antibody (10 mg/kg) 3 days before tumor inoculation and then 1 time per week. For in vivo slc4a4 inhibition, mice were treated with 15 mg/kg of 4,4′-Diisothiocyano-2,2′-stilbenedisulfonic acid (DIDS) i.p. bi-daily for a period of 10 days. Antibodies: Rat serum IgG (14131) (Sigma-Aldrich); Ultra-LEAF™ Purified PD-1anti-mouse (CD279) RMP1-14 (BioLegend); InVivoMAb anti-mouse CTLA-4 (CD152) (BioCell); InVivoMAb anti-mouse CD8α (BioCell); InVivoMab anti-mouse PD-L1 (B7-H1) (BioCell).
Mice were sacrifice by cervical dislocation and the tumor were harvested in cold PBS. Tumors were minced in alpha MEM (Lonza) containing 0,085 mg/ml Collagenase V (Sigma), 0,125 mg/ml Collagenase D (Roche) and 0,1 mg/ml Dispase (Gibco), and incubated in the same solution for 30 minutes at 37° C. The digested tissues were filtered using a 70-μm pore sized strainer and cells were centrifuged 5 minutes at 300 xg. Red blood cell lysis was performed by using a home-made red blood cell lysis buffer (150 mM NH4Cl, 0.1 mM EDTA, 10 mM KHCO3, pH 7.4. Single cells were resuspended in FACS buffer (PBS containing 2% FBS and 2 mM EDTA) and incubated for 15 minutes with Mouse BD Fc Block purified anti-mouse CD16/CD32 mAb (BD-Pharmingen) and stained for 30 minutes at 4° C. with the following antibodies: Fixable viability dye (eFluor™ 450 or eFluor™ 506, 1:500),CD45 (PE, 1:200), TCRβ (FITC, 1:300), CD4 (PercPcy5.5, 1:400), CD8 (APC-cy7, 1:300), IFNγ (PE-cy7, 1:100), Foxp3 (APC, 1:100), TBet1 (BV421, 1:50)-from BD Biosciences. Cells were subsequently washed and resuspended in FACS buffer before FACS analysis by a FACS Canto II (BD Biosciences). Data was analyzed by Flowio (TreeStar).

Each structure is given as a SMILES string.

Consider `O=S(=O)(O)c1cc(N=C=S)ccc1C=Cc1ccc(N=C=S)cc1S(=O)(=O)O` [DIDS, 4,4′-diisothiocyano-2,2′-stilbenedisulfonic acid], for which the “tumor reduction upon treatment” value with KPC orthotopic tumors [1] (Slc4a4-KD orthotopic KPC tumors) is recorded as “no differences in tumor reduction”. Moreover, the tumor growth result in the experiment with KPC orthotopic tumors [1] (wild-type (control, NT) orthotopic KPC tumors) is “reduction in tumor growth”. In addition, in the experiment on KPC orthotopic tumors [2], the “CD8+ T cells infiltration” value is “increase”, the “CD8+/CD4+ T cell ratio” value is recorded as “increase”, the “IFNγ expression of CD8+ T cells” value is “increase” and the “number of CD4+ T cells” value is listed as “no differences”. Further, the “number of Treg” value in the experiment on KPC orthotopic tumors [2] is listed as “no differences”.

(Values after patent US20240130999A1, “Inhibition of SLC4A4 in the Treatment of Cancer” (VIB VZW, priority 2021, published 2024).)
